{"source": "paper PMC12416277", "about": "“Phytochemical alkaloids orchestrate immunometabolism against viral infections” (National Science Review, 2025)", "key": {"[1]": {"tested_on": "Ifnb1, Ifit1, Ifit2 and Ifi44 mRNA", "assay": "Ifnb1 and ISG mRNA in mouse lungs, livers, spleens after intraperitoneal injection", "format": "in vivo", "details": "intraperitoneal 30, 60 mg/kg/d, 24-48 h"}, "NPC1": {"biological_target": "T1, NPC1 (Homo sapiens, UniProt O15118)", "T1 sequence (O15118 23-1278)": "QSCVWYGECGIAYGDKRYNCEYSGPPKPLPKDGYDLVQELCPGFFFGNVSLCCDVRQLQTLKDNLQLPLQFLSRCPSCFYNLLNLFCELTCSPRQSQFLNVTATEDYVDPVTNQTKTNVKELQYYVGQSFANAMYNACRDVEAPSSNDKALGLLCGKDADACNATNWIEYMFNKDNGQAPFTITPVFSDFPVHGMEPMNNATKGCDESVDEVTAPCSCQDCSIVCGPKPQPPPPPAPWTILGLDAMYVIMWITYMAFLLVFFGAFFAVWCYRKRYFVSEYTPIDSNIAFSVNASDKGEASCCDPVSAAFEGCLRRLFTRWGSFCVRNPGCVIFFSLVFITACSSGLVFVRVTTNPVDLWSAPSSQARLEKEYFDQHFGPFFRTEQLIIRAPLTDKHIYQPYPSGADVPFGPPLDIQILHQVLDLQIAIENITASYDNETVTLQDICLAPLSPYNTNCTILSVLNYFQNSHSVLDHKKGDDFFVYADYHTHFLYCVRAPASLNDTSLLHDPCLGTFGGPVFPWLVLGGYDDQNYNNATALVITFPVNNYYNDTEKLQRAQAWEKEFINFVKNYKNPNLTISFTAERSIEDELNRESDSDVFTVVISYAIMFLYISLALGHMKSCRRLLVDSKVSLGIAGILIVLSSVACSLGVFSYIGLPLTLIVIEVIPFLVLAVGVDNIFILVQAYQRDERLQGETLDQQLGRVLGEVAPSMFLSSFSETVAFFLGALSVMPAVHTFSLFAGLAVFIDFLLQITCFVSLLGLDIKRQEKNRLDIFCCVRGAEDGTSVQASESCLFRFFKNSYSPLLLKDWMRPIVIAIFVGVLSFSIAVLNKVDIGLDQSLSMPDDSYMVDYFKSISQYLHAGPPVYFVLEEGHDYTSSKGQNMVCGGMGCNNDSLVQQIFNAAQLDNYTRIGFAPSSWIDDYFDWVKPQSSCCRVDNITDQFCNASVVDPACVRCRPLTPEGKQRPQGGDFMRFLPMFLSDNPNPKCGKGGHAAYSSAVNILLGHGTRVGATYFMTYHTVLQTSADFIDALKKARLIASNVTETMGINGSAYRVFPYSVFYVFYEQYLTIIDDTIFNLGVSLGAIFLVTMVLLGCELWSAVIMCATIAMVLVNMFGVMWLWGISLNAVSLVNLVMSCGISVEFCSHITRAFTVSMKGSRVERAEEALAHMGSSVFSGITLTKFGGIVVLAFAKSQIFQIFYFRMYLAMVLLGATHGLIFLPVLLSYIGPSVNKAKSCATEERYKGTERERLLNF", "format": "binding", "details": "read-out: SPR KD"}, "HSV-1": {"tested_on": "HSV-1", "assay": "microbe, parasite or virus in culture", "format": "cell-based, herpes simplex virus 1 (HSV-1)", "details": "Human alphaherpesvirus 1, L929"}, "NPC1/STING axis": {"tested_on": "NPC1/STING axis", "assay": "Ifit1 and Ifit2 mRNA in sgRNA-EV, sgRNA Npc1 and Flag-NPC1 cells stimulated with DMXAA and Tet", "format": "cell-based, mouse", "details": "sgRNA-EV vs NPC1-deficient vs Flag-NPC1 cells, DMXAA", "description": "Figure 5. The dual functions of Tet to resist viral entry and activate antiviral immunity through the NPC1/STING axis. (a, b) Confocal analysis of Bio-Tet with CD63 (a) or NPC1 (b) in A549 cells, scale bar: 10 μm. (c) Binding affinity analysis of NPC1 with itraconazole, U18666A, or Tet was determined by SPR. (d, e) CETSA (d) and DARTS (e) analysis of NPC1 with Tet in HepG2 cells. (f) Streptavidin-covered beads with biotin, Bio-Tet, Bio-Tet + Tet were incubated with cell lysates. As indicated, the levels of NPC1 protein in bound proteins (IP) and total proteins (Input) were determined using immunoblotting. (g) Viral mRNA expression in siNPC1-transfected cells treated with Tet. (h) Viral mRNA expression in sgRNA-EV, sgRNA Npc1, and sgRNA Npc1 cells transfected with Flag-NPC1 treated with Tet. (i) Ifit1 and Ifit2 mRNA expression in sgRNA-EV, sgRNA Npc1, and sgRNA Npc1 cells transfected with Flag-NPC1 stimulated with DMXAA and Tet. (j) Schematic of LysoIP-DEG. (k) Immunoblotting analysis of the indicated proteins in LysoIP-DEG in Tet-treated HepG2 cells. (l) Schematic model of NPC1/STING axis-mediated viral inhibition by Tet. The schematic diagram (j) and model (l) were created by Figdraw. For a, b, g, h, i, n = 3 independent experiments. All data are presented as mean ± SD. P values were calculated using one-way ANOVA (g, h, i). NS, not significant. […]"}, "STING": {"tested_on": "STING", "format": "cell-based"}, "VSV": {"tested_on": "VSV", "format": "cell-based, vesicular stomatitis virus (VSV)"}, "[2]": {"tested_on": "IFNB1, IFIT1, IFIT2 and IFI44 mRNA", "assay": "IFNB1 and ISG mRNA expression in A549, PBMC and MEF cells (qRT-PCR)", "format": "cell-based", "details": "A549, PBMC, MEF cells"}, "IFN-β": {"tested_on": "IFN-β", "assay": "IFN-β secretion in MEF cells (ELISA)", "format": "cell-based"}}, "data": [{"smiles": "COc1ccc2cc1Oc1ccc(cc1)C[C@H]1c3cc(c(OC)cc3CCN1C)Oc1c(OC)c(OC)cc3c1[C@H](C2)N(C)CC3", "note": "[Tet, tetrandrine]", "values": [{"measurement": "Ifnb1 and ISGs mRNA levels in vivo", "setting": "[1]", "result": "increased Ifnb1 and ISGs mRNA levels in vivo, particularly in lungs and livers"}, {"measurement": "Kd", "setting": "NPC1", "result": 22.2, "unit": "µM"}, {"measurement": "EC50", "setting": "HSV-1", "result": 0.132, "unit": "µM"}, {"measurement": "Ifit1 and Ifit2 expression", "setting": "NPC1/STING axis", "result": "observed in sgRNA-EV cells, but this effect was abolished in NPC1-deficient cells and restored in sgRNA-Npc1 cells transfected with Flag-NPC1"}, {"measurement": "time-dependent degradation of STING induced by DMXAA", "setting": "STING", "result": "significantly attenuated"}, {"measurement": "VSV attachment", "setting": "VSV", "result": "without affecting virus attachment"}, {"measurement": "VSV infection during entry or post-entry stages", "setting": "VSV", "result": "inhibited"}, {"measurement": "VSV-eGFP entry into lysosomes", "setting": "VSV", "result": "blocked"}, {"measurement": "IFNB1 and ISGs mRNA", "setting": "[2]", "result": "upregulation"}, {"measurement": "IFN-β production", "setting": "IFN-β", "result": "induced"}]}]}
